The values below come from patent US20190231707A1, “TRANSDERMAL DRUG DELIVERY DEVICE FOR DELIVERING OPIOIDS” (CHRONO THERAPEUTICS INC., priority 2016, published 2019).

This series can be described thus: Average cumulative delivery / flux across cadaver skin. The settings on record: FIG. 15. The format is in vitro ADME. From the text:
The prodrug of Naltrexone with the PEG conjugation increased the molecular weight of the compound to be about 690 g/mole. […] The average flux for the Naltrexone was about 15.37 micrograms (μg) per hour per cm^2.

For `O=C1CC[C@@]2(O)[C@H]3Cc4ccc(O)c5c4[C@@]2(CCN3CC2CC2)[C@H]1O5` [Naltrexone], the “average flux across the cadaver skin” value is “about 15.37 micrograms (μg) per hour per cm^2”.
